The target in test [1] is hGYS1 enzyme (recombinant hGYS1/GN1 protein) (Homo sapiens (Human), UniProt P13807). In words: GYS1 coupled enzyme assay (PK/LDH). It counts as biochemical. The note with it: hGYS1/GN1 50 nM, UDP-Glucose 0.8 mM, G6P 1 mM; geometric mean of at least 2 runs.
Test [2] addresses hGYS2 enzyme (recombinant hGYS2/GN1 protein) (Homo sapiens (Human), UniProt P54840). In words: GYS2 coupled enzyme assay (PK/LDH). The format is biochemical. Particulars: geometric mean of at least 2 assay runs on separate days, read-out: Avg_IC50. The text has this:
The GYS2 coupled enzyme assay is a kinetic biochemical assay that indirectly quantifies the rate of glycogen synthesis by coupling the conversion of GYS2 substrate UDP-glucose into UDP with downstream enzymatic reactions. UDP is released from UDP-glucose as glucose monomers are linked into the growing glycogen strand by GYS2. The coupled assay then proceeds with pyruvate kinase utilizing UDP and phospho(enol)pyruvate (PEP) to form pyruvate. Lactate dehydrogenase then converts pyruvate and NADH into lactate and NAD+. Oxidation of NADH to NAD+ can be measured continuously with a plate reader by quantifying the decrease in NADH absorbance at 340 nm over time.
Compounds that inhibit the hGYS2 enzyme and, subsequently, the downstream conversion of NADH to NAD+, were tested using assay ready plates (black, clear bottom 384 well plates) in a final DMSO reaction volume of 2.5% DMSO. The Assay Buffer contained 50 mM Tris pH 7.5, 2 mM MgCl2, and 100 mM KCl. Fresh stocks of BSA at a final concentration of 0.02% and TCEP 1 mM were added before splitting buffer into hGYS2 buffer and substrate buffer. To the hGYS2 buffer, rabbit liver glycogen was added at a final concentration of 0.2% glycogen. Glucose-6-Phosphate was added at 2 mM, recombinant hGYS2/GN1 protein was added at 200 nM to the substrate buffer, phosphoenolpyruvate (PEP) was added at 2 mM, UDP-Glucose was added at 2 mM, NADH was added at 0.6 mM, and Pyruvate Kinase/Lactate Dehydrogenase was added at 20 units/mL. The reaction was initiated by mixing hGYS2 buffer and substrate buffer at a 1:1 ratio. Both buffers were plated using a liquid dispensing device with hGYS2 buffer plated first followed by the substrate buffer. Plates were spun briefly to eliminate air bubbles and are immediately read in continuous mode at an absorbance of 340 nm, for 10 time points in one-minute increments, for a total of 10 minutes. The slope from these 10 time points was normalized to the positive and negative control wells. The duplicate % inhibition values are then averaged and fit to a Hill equation for dose response according to the Levenberg-Marquardt algorithm with the Hill equation maximum set to 100 and the minimum set to 0.
The results are shown in Table 4 below, which reports the IC50 of each compound. Unless otherwise specified, IC50 values are reported as the geometric mean of at least 2 assay runs on separate days. As shown in the table below, the compounds of the present invention are not potent inhibitors of human GYS2. Unless otherwise specified, IC50 values are reported as the geometric mean of at least two assay runs on separate days. Each run represents the average of a technical replicate, where each compound was assayed twice in the same plate. A superscript “#” symbol in Table 4 indicates results from a single assay run.

Sequence of hGYS1 enzyme (recombinant hGYS1/GN1 protein) (P13807 whole entry): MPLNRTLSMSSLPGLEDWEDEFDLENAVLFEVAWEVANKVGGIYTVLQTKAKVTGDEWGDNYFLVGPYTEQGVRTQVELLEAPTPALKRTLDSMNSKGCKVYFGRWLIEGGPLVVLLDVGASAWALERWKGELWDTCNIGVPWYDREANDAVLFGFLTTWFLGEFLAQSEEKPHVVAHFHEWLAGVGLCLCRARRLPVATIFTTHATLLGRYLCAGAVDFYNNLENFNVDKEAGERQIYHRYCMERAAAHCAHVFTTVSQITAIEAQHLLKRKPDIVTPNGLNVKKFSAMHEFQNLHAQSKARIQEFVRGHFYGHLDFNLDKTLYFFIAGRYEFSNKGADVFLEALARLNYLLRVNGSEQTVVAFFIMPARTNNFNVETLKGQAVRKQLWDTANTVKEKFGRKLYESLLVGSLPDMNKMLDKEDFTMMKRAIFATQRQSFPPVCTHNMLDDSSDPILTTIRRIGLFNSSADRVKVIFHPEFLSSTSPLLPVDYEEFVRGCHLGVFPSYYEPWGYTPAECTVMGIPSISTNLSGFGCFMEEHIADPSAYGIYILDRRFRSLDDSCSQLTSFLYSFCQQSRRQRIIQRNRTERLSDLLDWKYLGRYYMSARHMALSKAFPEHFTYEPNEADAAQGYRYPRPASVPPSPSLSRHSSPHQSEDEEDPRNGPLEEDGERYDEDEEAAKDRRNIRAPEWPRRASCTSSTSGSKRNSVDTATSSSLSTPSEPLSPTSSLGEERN
Sequence of hGYS1 enzyme (recombinant hGYS1/GN1 protein) (P46976 whole entry partner): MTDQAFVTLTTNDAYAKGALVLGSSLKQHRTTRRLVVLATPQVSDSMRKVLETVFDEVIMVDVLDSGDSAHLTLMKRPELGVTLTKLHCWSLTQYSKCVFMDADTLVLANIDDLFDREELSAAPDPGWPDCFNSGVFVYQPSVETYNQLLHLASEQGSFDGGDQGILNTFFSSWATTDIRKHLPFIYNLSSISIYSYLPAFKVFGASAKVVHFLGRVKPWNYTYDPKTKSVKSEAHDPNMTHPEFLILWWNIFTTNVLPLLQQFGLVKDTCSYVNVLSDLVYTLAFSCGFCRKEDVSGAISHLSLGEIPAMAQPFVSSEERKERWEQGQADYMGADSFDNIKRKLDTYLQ
Sequence of hGYS2 enzyme (recombinant hGYS2/GN1 protein) (P54840 whole entry): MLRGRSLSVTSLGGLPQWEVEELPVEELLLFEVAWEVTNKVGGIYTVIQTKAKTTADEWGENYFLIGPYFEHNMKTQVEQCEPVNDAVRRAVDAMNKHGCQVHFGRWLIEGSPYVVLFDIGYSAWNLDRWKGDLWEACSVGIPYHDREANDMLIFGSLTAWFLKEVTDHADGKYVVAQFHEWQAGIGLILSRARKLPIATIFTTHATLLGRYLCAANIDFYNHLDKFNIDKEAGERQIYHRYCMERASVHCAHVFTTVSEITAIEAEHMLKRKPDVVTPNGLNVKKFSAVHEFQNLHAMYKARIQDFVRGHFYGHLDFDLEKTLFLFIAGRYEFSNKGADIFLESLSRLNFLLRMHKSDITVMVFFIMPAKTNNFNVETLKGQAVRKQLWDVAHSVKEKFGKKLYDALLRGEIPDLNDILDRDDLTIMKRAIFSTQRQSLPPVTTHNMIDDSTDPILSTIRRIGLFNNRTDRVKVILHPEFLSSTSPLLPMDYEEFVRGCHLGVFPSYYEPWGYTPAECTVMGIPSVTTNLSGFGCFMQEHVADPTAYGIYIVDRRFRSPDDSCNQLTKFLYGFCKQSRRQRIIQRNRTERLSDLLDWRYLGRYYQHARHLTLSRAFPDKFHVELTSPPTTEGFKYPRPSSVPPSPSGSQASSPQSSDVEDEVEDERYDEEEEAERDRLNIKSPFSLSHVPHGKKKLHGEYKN
Sequence of hGYS2 enzyme (recombinant hGYS2/GN1 protein) (P46976 whole entry partner): as the sequence (P46976 whole entry partner) above

As for `CC(C)c1ccc([C@@H](NC(=O)[C@@H]2C[C@@H](F)CN2C(=O)Cn2ccncc2=O)c2ccccc2)cc1` [Compound 32, (2S,4R)-4-fluoro-1-[2-(2-oxo-1,2-dihydropyrazin-1-yl)acetyl]-N-[(S)-phenyl[4-(propan-2-yl)phenyl]methyl]pyrrolidine-2-carboxamide], the IC50 was 23 nM in test [1] and over 100000 nM in test [2].

For the molecule `CC(C)c1ccc([C@@H](NC(=O)[C@@H]2C[C@@H](F)CN2C(=O)C(C)n2ccnn2)c2ccccc2)cc1` (stereo partly drawn) [Compound 33, (2S,4R)-4-fluoro-N-[(S)-phenyl[4-(propan-2-yl)phenyl]methyl]-1-[2-(1H-1,2,3-triazol-1-yl)propanoyl]pyrrolidine-2-carboxamide], the values for the IC50 in test [1] and in test [2] were 106 nM and over 100000 nM, respectively.

Turning to `CC(C)c1ccc([C@@H](NC(=O)[C@@H]2C[C@@H](F)CN2C(=O)C(C)n2cncn2)c2ccccc2)cc1` (stereo partly drawn) [Compound 34, (2S,4R)-4-fluoro-N-[(S)-phenyl[4-(propan-2-yl)phenyl]methyl]-1-[2-(1H-1,2,4-triazol-1-yl)propanoyl]pyrrolidine-2-carboxamide], the IC50 in test [1] was 75 nM; in test [2], over 100000 nM.

For `CC(C)c1ccc([C@@H](NC(=O)[C@@H]2C[C@@H](F)CN2C(=O)CCn2cncn2)c2ccccc2)cc1` [Compound 35, (2S,4R)-4-fluoro-N-[(S)-phenyl[4-(propan-2-yl)phenyl]methyl]-1-[3-(1H-1,2,4-triazol-1-yl)propanoyl]pyrrolidine-2-carboxamide], the IC50 in test [1] was 185 nM; in test [2], over 100000 nM.

For `CC(C)c1ccc([C@@H](NC(=O)[C@@H]2C[C@@H](F)CN2C(=O)Cc2ccc(F)cn2)c2ccccc2)cc1` [Compound 36, (2S,4R)-4-fluoro-1-[2-(5-fluoropyridin-2-yl)acetyl]-N-[(S)-phenyl[4-(propan-2-yl)phenyl]methyl]pyrrolidine-2-carboxamide], the IC50 is 73 nM in test [1] and over 100000 nM in test [2].

With `CC(C)c1ccc([C@@H](NC(=O)[C@@H]2C[C@@H](F)CN2C(=O)Cc2ccccn2)c2ccccc2)cc1` [Compound 37, (2S,4R)-4-fluoro-N-[(S)-phenyl[4-(propan-2-yl)phenyl]methyl]-1-[2-(pyridin-2-yl)acetyl]pyrrolidine-2-carboxamide], the IC50 in test [1] was 45 nM; in test [2], over 100000 nM.

With `CC(C)c1ccc([C@@H](NC(=O)[C@@H]2C[C@@H](F)CN2C(=O)Cc2cccnc2)c2ccccc2)cc1` [Compound 38, (2S,4R)-4-fluoro-N-[(S)-phenyl[4-(propan-2-yl)phenyl]methyl]-1-[2-(pyridin-3-yl)acetyl]pyrrolidine-2-carboxamide], the IC50 is 51 nM in test [1] and over 100000 nM in test [2].

With `Cc1cc(CC(=O)N2C[C@H](F)C[C@H]2C(=O)N[C@@H](c2ccccc2)c2ccc(C(C)C)cc2)on1` [Compound 40, (2S,4R)-4-fluoro-1-[2-(3-methyl-1,2-oxazol-5-yl)acetyl]-N-[(S)-phenyl[4-(propan-2-yl)phenyl]methyl]pyrrolidine-2-carboxamide], the IC50 in test [1] was 26 nM; in test [2], over 100000 nM.

For the molecule `Cc1ncc(CC(=O)N2C[C@H](F)C[C@H]2C(=O)N[C@@H](c2ccccc2)c2ccc(C(C)C)cc2)s1` [Compound 41, (2S,4R)-4-fluoro-1-[2-(2-methyl-1,3-thiazol-5-yl)acetyl]-N-[(S)-phenyl[4-(propan-2-yl)phenyl]methyl]pyrrolidine-2-carboxamide], the IC50 was 31 nM in test [1] and over 100000 nM in test [2].

Regarding `CC(C)c1ccc([C@@H](NC(=O)[C@@H]2C[C@@H](F)CN2C(=O)C(C)n2ccnc2)c2ccccc2)cc1` (stereo partly drawn) [Compound 44, (2S,4R)-4-fluoro-1-[2-(1H-imidazol-1-yl)propanoyl]-N-[(S)-phenyl[4-(propan-2-yl)phenyl]methyl]pyrrolidine-2-carboxamide], the IC50 in test [1] was 106 nM; in test [2], over 100000 nM.
